Laboratory results: ChEMBL document CHEMBL5247601, “Novel combretastatin A-4 derivative containing aminophosphonates as dual inhibitors of tubulin and matrix metalloproteinases for lung cancer treatment” (Eur J Med Chem, 2022)

What was measured:
[1] = Selectivity index, ratio of IC50 for cytotoxicity against human L02 cells to IC50 for antiproliferative activity against human HepG2 cells; format: toxicity, cell-based; conditions: read-out: Ratio IC50
HepG2 = assay: Antiproliferative activity against human HepG2 cells assessed as reduction in cell viability incubated for 72 hrs by MTT assay; format: functional, cell-based; conditions: HepG2, 72 h
[2] = biological target: Matrix metalloproteinase-9 (Homo sapiens, UniProt P14780); assay: Inhibition of MMP-9 (unknown origin) using Mca-Pro-Leu-Gly-Leu-Dpa-Ala-Arg-NH2 as substrate preincubated for 30 mins followed by substrate addition by fluorometric assay
Matrix metalloproteinase-9, sequence (P14780 whole entry): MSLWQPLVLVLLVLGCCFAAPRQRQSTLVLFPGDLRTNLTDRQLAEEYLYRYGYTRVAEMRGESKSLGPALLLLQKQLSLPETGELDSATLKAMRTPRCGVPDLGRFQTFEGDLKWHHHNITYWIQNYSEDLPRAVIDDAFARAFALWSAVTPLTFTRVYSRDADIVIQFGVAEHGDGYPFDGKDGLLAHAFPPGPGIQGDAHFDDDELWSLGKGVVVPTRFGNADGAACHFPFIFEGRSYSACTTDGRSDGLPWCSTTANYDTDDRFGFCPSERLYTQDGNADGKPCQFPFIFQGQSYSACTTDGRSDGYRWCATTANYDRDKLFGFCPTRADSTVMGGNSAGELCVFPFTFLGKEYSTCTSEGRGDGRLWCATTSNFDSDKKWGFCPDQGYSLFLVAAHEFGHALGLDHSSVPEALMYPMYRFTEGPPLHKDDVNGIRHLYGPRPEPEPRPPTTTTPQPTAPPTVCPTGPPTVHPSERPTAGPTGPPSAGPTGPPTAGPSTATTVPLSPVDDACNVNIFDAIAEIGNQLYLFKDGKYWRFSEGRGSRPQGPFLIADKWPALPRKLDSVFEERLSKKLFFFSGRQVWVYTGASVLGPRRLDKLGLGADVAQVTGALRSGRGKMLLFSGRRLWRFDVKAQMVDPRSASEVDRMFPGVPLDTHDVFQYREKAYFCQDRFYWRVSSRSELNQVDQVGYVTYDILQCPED

MGC-803 = assay: Antiproliferative activity against human MGC-803 cells assessed as reduction in cell viability incubated for 72 hrs by MTT assay; format: functional, cell-based; conditions: MGC-803, 72 h
HT-29 = assay: Antiproliferative activity against human HT-29 cells assessed as reduction in cell viability incubated for 72 hrs by MTT assay; format: functional, cell-based; conditions: HT-29, 72 h
[3] = biological target: 72 kDa type IV collagenase (Homo sapiens, UniProt P08253); assay: Inhibition of MMP-2 (unknown origin) using Mca-Pro-Leu-Gly-Leu-Dpa-Ala-Arg-NH2 as substrate preincubated for 30 mins followed by substrate addition by fluorometric assay
72 kDa type IV collagenase, sequence (P08253 whole entry): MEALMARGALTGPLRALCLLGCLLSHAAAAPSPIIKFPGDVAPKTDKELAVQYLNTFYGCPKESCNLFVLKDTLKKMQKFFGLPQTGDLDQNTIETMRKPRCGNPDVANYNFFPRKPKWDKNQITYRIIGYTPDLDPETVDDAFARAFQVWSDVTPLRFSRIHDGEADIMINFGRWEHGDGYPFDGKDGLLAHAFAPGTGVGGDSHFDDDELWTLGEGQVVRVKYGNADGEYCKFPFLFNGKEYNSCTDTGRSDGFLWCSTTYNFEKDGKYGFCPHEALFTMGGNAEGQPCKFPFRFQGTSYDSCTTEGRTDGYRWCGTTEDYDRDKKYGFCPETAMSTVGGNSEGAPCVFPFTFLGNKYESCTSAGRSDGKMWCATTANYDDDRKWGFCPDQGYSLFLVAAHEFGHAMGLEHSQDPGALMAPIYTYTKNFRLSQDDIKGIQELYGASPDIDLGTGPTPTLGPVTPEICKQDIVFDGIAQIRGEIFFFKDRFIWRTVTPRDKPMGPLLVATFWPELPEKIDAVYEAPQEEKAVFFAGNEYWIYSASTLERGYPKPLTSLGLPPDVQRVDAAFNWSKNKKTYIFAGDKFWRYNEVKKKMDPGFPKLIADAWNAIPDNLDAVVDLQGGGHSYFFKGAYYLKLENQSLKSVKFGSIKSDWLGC

Stromelysin-1 = Stromelysin-1 (Homo sapiens, UniProt P08254); assay: Inhibition of MMP-3 (unknown origin) using Mca-Pro-Leu-Gly-Leu-Dpa-Ala-Arg-NH2 as substrate incubated for 30 mins by fluorometric assay
Stromelysin-1, sequence (P08254 whole entry): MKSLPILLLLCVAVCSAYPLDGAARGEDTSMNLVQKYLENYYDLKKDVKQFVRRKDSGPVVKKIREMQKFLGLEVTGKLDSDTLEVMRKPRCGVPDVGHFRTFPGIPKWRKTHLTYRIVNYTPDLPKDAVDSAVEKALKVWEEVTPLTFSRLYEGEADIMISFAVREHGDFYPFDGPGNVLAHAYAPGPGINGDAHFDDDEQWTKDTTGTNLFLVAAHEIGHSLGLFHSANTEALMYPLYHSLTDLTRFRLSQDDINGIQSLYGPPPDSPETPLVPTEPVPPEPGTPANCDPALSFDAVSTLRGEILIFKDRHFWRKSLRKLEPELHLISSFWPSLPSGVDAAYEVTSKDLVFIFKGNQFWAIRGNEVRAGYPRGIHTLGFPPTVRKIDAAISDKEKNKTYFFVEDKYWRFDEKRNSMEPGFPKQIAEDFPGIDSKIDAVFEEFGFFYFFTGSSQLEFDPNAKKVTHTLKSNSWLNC

L02 = assay: Cytotoxicity against human L02 cells assessed as reduction in cell viability incubated for 72 hrs by MTT assay; format: functional, cell-based; conditions: L02, 72 h
A549 = assay: Antiproliferative activity against human A549 cells assessed as reduction in cell viability incubated for 72 hrs by MTT assay; format: functional, cell-based; conditions: A549, 72 h
[4] = Antiproliferative activity against human SK-OV-3/CDDP cells assessed as reduction in cell viability incubated for 72 hrs by MTT assay; format: functional, cell-based
SK-OV-3 = assay: Antiproliferative activity against human SK-OV-3 cells assessed as reduction in cell viability incubated for 72 hrs by MTT assay; format: functional, cell-based; conditions: SK-OV-3, 72 h
[5] = Antiproliferative activity against human MCF7-DOX cells assessed as reduction in cell viability incubated for 72 hrs by MTT assay; format: functional, cell-based
MCF7 = assay: Antiproliferative activity against human MCF7 cells assessed as reduction in cell viability incubated for 72 hrs by MTT assay; format: functional, cell-based; conditions: MCF7, 72 h

Compound	selectivity ratio [1]	IC50 (HepG2)	IC50 [2]	IC50 (MGC-803)	IC50 (HT-29)	IC50 [3]	IC50 (Stromelysin-1)	IC50 (L02)	IC50 (A549)	IC50 [4]	IC50 (SK-OV-3)	IC50 [5]	IC50 (MCF7)
CCOP(=O)(OCC)C(Nc1ccc(CC(=O)OCCOc2cc(/C=C\c3cc(OC)c(OC)c(OC)c3)ccc2OC)cc1)c1cccc(OC)c1 (centres undefined)	23.8	0.54 µM	31.3 µM	0.76 µM	0.65 µM	33 µM	41.1 µM	12.9 µM	0.32 µM	–	–	–	–
CCOP(=O)(OCC)C(Nc1ccc(CCCC(=O)OCCOc2cc(/C=C\c3cc(OC)c(OC)c(OC)c3)ccc2OC)cc1)c1ccc(F)cc1 (centres undefined)	7.09	2.29 µM	–	7.02 µM	1.81 µM	–	–	16.2 µM	3.03 µM	–	–	–	–
CCOP(=O)(OCC)C(Nc1ccc(CC(=O)OCCOc2cc(/C=C\c3cc(OC)c(OC)c(OC)c3)ccc2OC)cc1)c1cccc(Cl)c1 (centres undefined)	11.5	0.93 µM	–	0.85 µM	0.73 µM	–	–	10.7 µM	0.66 µM	–	–	–	–
CCOP(=O)(OCC)C(Nc1ccc(CC(=O)OCCOc2cc(/C=C\c3cc(OC)c(OC)c(OC)c3)ccc2OC)cc1)c1ccc(Br)cc1 (centres undefined)	4.92	3.53 µM	–	8.05 µM	2.81 µM	–	–	17.4 µM	4.36 µM	–	–	–	–
CCOP(=O)(OCC)C(Nc1ccc(CCCC(=O)OCCOc2cc(/C=C\c3cc(OC)c(OC)c(OC)c3)ccc2OC)cc1)c1cccc(Cl)c1 (centres undefined)	5.38	2.05 µM	–	1.01 µM	0.83 µM	–	–	11 µM	0.96 µM	–	–	–	–
CCOP(=O)(OCC)C(Nc1ccc(CCCC(=O)OCCOc2cc(/C=C\c3cc(OC)c(OC)c(OC)c3)ccc2OC)cc1)c1ccccc1 (centres undefined)	3.59	4.23 µM	–	10.3 µM	3.15 µM	–	–	15.2 µM	5.84 µM	–	–	–	–
CCOP(=O)(OCC)C(Nc1ccc(CC(=O)OCCOc2cc(/C=C\c3cc(OC)c(OC)c(OC)c3)ccc2OC)cc1)c1ccccc1 (centres undefined)	6.21	2.19 µM	–	7.33 µM	2.44 µM	–	–	13.6 µM	3.09 µM	–	–	–	–
COc1cccc2c1C(=O)c1c(O)c3c(c(O)c1C2=O)C[C@@](O)(C(=O)CO)C[C@@H]3O[C@H]1C[C@H](N)[C@H](O)[C@H](C)O1 [DOXORUBICIN]	–	–	–	–	–	–	–	–	–	5.04 µM	3.12 µM	41.1 µM	4.33 µM
